Test results as given in ChEMBL document CHEMBL5046254, “Mycobactin Analogues with Excellent Pharmacokinetic Profile Demonstrate Potent Antitubercular Specific Activity and Exceptional Efflux Pump Inhibition” (J Med Chem, 2022).
Values after ≈ are worked out from the molar mass of the structure shown.

Experiments:
[1] = system: Mycolicibacterium smegmatis; test: Antitubercular activity against Mycobacterium smegmatis mc2155 ATCC 700084 cultured in GAST media incubated for 24 hrs by resazurin microtiter assay; format: functional
[2] = system: Mycolicibacterium smegmatis; test: Antitubercular activity against Mycobacterium smegmatis mc2155 ATCC 700084 cultured in GAST-Fe media incubated for 24 hrs by resazurin microtiter assay; format: functional
[3] = system: Mycobacterium tuberculosis; test: microbe, parasite or virus in culture; conditions: H37Rv ATCC 27294, 192 h
[4] = system: Mycobacterium tuberculosis; test: microbe, parasite or virus in culture; conditions: H37Rv ATCC 27294, 192 h; remark: listed apart in the source

Row | SMILES | MIC90 [1] [µg/mL] | MIC90 [2] [µg/mL] | MIC90 [3] [µg/mL] | MIC90 [4] [µg/mL]
1 | Oc1ccccc1C1=NNC(c2ccc(F)cc2)C1 (stereo not drawn) | 8 (≈ 31.2 µM) | 64 (≈ 250 µM) | 16 (≈ 62.4 µM) | 128 (≈ 499 µM)
2 | COc1ccc(C2CC(c3ccccc3O)=NN2C(N)=S)cc1O (stereo not drawn) | 128 (≈ 373 µM) | 128 (≈ 373 µM) | 8 (≈ 23.3 µM) | 16 (≈ 46.6 µM)
3 | Cc1ccc(C2CC(c3ccccc3O)=NN2)cc1 (stereo not drawn) | 16 (≈ 63.4 µM) | 64 (≈ 254 µM) | 8 (≈ 31.7 µM) | 32 (≈ 127 µM)
4 | NC(=S)N1N=C(c2ccccc2O)CC1c1cccc(Cl)c1 (stereo not drawn) | 256 (≈ 771 µM) | 256 (≈ 771 µM) | 16 (≈ 48.2 µM) | 32 (≈ 96.4 µM)
5 | NC(=S)N1N=C(c2ccccc2O)CC1c1ccccc1F (stereo not drawn) | 128 (≈ 406 µM) | 128 (≈ 406 µM) | 16 (≈ 50.7 µM) | 32 (≈ 101 µM)
6 | Oc1cccc(C2CC(c3ccccc3O)=NN2)c1 (stereo not drawn) | 64 (≈ 252 µM) | 64 (≈ 252 µM) | 64 (≈ 252 µM) | > 256
7 | Oc1ccccc1C1=NNC(c2ccccc2)C1 (stereo not drawn) | 64 (≈ 269 µM) | 128 (≈ 537 µM) | 32 (≈ 134 µM) | 128 (≈ 537 µM)
8 | COc1ccccc1C1CC(c2ccccc2O)=NN1C(C)=O (stereo not drawn) | > 256 | > 256 | > 256 | > 256
9 | Oc1ccccc1C1=NNC(c2ccccc2O)C1 (stereo not drawn) | 64 (≈ 252 µM) | 64 (≈ 252 µM) | 64 (≈ 252 µM) | > 256
10 | COc1cccc(C2CC(c3ccccc3O)=NN2C(C)=O)c1 (stereo not drawn) | > 256 | 256 (≈ 825 µM) | > 256 | > 256
11 | COc1ccccc1C1CC(c2ccccc2O)=NN1 (stereo not drawn) | 64 (≈ 239 µM) | 128 (≈ 477 µM) | 32 (≈ 119 µM) | 256 (≈ 954 µM)
12 | Cc1ccc(C2CC(c3ccccc3O)=NN2C(N)=S)cc1 (stereo not drawn) | 128 (≈ 411 µM) | > 256 | 8 (≈ 25.7 µM) | 8 (≈ 25.7 µM)
13 | CC(=O)N1N=C(c2ccccc2O)CC1c1ccc(O)cc1 (stereo not drawn) | > 256 | > 256 | > 256 | > 256
14 | Oc1ccccc1C1=NNC(c2ccccc2Br)C1 (stereo not drawn) | 8 (≈ 25.2 µM) | 64 (≈ 202 µM) | 16 (≈ 50.4 µM) | 32 (≈ 101 µM)
15 | CC(=O)N1N=C(c2ccccc2O)CC1c1ccc(Cl)cc1 (stereo not drawn) | > 256 | 256 (≈ 813 µM) | > 256 | > 256
16 | NC(=S)N1N=C(c2ccccc2O)CC1c1ccc(Cl)cc1 (stereo not drawn) | 128 (≈ 386 µM) | 256 (≈ 771 µM) | 4 (≈ 12.1 µM) | 8 (≈ 24.1 µM)
17 | CC(=O)N1N=C(c2ccccc2O)CC1c1ccccc1O (stereo not drawn) | > 256 | > 256 | > 256 | 256 (≈ 864 µM)
18 | CC(=O)N1N=C(c2ccccc2O)CC1c1ccccc1 (stereo not drawn) | > 256 | > 256 | > 256 | > 256
19 | CC(=O)N1N=C(c2ccccc2O)CC1c1cccc(Cl)c1 (stereo not drawn) | 128 (≈ 407 µM) | 128 (≈ 407 µM) | 256 (≈ 813 µM) | 256 (≈ 813 µM)
20 | Oc1ccccc1C1=NNC(c2cccc(F)c2)C1 (stereo not drawn) | 16 (≈ 62.4 µM) | 64 (≈ 250 µM) | 64 (≈ 250 µM) | 256 (≈ 999 µM)
21 | NC(=S)N1N=C(c2ccccc2O)CC1c1ccccc1Cl (stereo not drawn) | 256 (≈ 771 µM) | 256 (≈ 771 µM) | 8 (≈ 24.1 µM) | 16 (≈ 48.2 µM)
22 | Cc1ccccc1C1CC(c2ccccc2O)=NN1C(N)=S (stereo not drawn) | 128 (≈ 411 µM) | > 256 | 16 (≈ 51.4 µM) | 16 (≈ 51.4 µM)
23 | NC(=S)N1N=C(c2ccccc2O)CC1c1cccc(O)c1 (stereo not drawn) | 128 (≈ 408 µM) | 256 (≈ 817 µM) | 16 (≈ 51.1 µM) | 128 (≈ 408 µM)
24 | NC(=S)N1N=C(c2ccccc2O)CC1c1ccccc1O (stereo not drawn) | 64 (≈ 204 µM) | 256 (≈ 817 µM) | 256 (≈ 817 µM) | 256 (≈ 817 µM)

Row | SMILES | MIC90 [1] [µg/mL] | MIC90 [2] [µg/mL] | MIC90 [3] [µg/mL] | MIC90 [4] [µg/mL]
25 | NNC(=O)c1ccncc1 [ISONIAZID] | 2 (≈ 14.6 µM) | 2 (≈ 14.6 µM) | 0.03 (≈ 0.219 µM) | 0.005 (≈ 0.0365 µM)
26 | Oc1ccccc1C1=NNC(c2ccccc2F)C1 (stereo not drawn) | 8 (≈ 31.2 µM) | 64 (≈ 250 µM) | 16 (≈ 62.4 µM) | 64 (≈ 250 µM)
27 | CC(=O)N1N=C(c2ccccc2O)CC1c1ccc(C)cc1 (stereo not drawn) | > 256 | 256 (≈ 870 µM) | > 256 | > 256
28 | COc1ccccc1C1CC(c2ccccc2O)=NN1C(N)=S (stereo not drawn) | 256 (≈ 782 µM) | 256 (≈ 782 µM) | 16 (≈ 48.9 µM) | 16 (≈ 48.9 µM)
29 | CC(=O)N1N=C(c2ccccc2O)CC1c1ccccc1Cl (stereo not drawn) | > 256 | 256 (≈ 813 µM) | > 256 | > 256
30 | Oc1ccc(C2CC(c3ccccc3O)=NN2)cc1 (stereo not drawn) | 32 (≈ 126 µM) | 64 (≈ 252 µM) | 128 (≈ 503 µM) | > 256
31 | CO[C@H]1/C=C/O[C@@]2(C)Oc3c(C)c(O)c4c(O)c(c(/C=N/N5CCN(C)CC5)c(O)c4c3C2=O)NC(=O)/C(C)=C\C=C\[C@H](C)[C@H](O)[C@@H](C)[C@@H](O)[C@@H](C)[C@H](OC(C)=O)[C@@H]1C [RIFAMPIN] | 8 (≈ 9.72 µM) | 8 (≈ 9.72 µM) | 0.03 (≈ 0.0365 µM) | 0.005 (≈ 0.00608 µM)
32 | COc1ccc(C2CC(c3ccccc3O)=NN2C(N)=S)cc1 (stereo not drawn) | 128 (≈ 391 µM) | > 256 | 64 (≈ 195 µM) | > 256
33 | COc1ccc(C2CC(c3ccccc3O)=NN2)cc1 (stereo not drawn) | 64 (≈ 239 µM) | 128 (≈ 477 µM) | 32 (≈ 119 µM) | 128 (≈ 477 µM)
34 | CC(=O)N1N=C(c2ccccc2O)CC1c1cccc(F)c1 (stereo not drawn) | 128 (≈ 429 µM) | 128 (≈ 429 µM) | 64 (≈ 215 µM) | 256 (≈ 858 µM)
35 | Cc1ccccc1C1CC(c2ccccc2O)=NN1 (stereo not drawn) | 16 (≈ 63.4 µM) | 128 (≈ 507 µM) | 16 (≈ 63.4 µM) | 64 (≈ 254 µM)
36 | CC(=O)N1N=C(c2ccccc2O)CC1c1cccc(Br)c1 (stereo not drawn) | > 256 | 256 (≈ 713 µM) | > 256 | > 256
37 | CC(=O)N1N=C(c2ccccc2O)CC1c1cccc(O)c1 (stereo not drawn) | > 256 | > 256 | > 256 | > 256
38 | CC(=O)N1N=C(c2ccccc2O)CC1c1ccc(F)cc1 (stereo not drawn) | 128 (≈ 429 µM) | 128 (≈ 429 µM) | 128 (≈ 429 µM) | 256 (≈ 858 µM)
39 | CC(=O)N1N=C(c2ccccc2O)CC1c1ccccc1F (stereo not drawn) | 256 (≈ 858 µM) | 256 (≈ 858 µM) | > 256 | > 256
40 | CC(=O)N1N=C(c2ccccc2O)CC1c1ccccc1Br (stereo not drawn) | > 256 | > 256 | > 256 | > 256
41 | COc1ccc(C2CC(c3ccccc3O)=NN2)cc1O (stereo not drawn) | > 256 | > 256 | 128 (≈ 450 µM) | 256 (≈ 900 µM)
42 | CC(=O)N1N=C(c2ccccc2O)CC1c1ccccc1C (stereo not drawn) | > 256 | 256 (≈ 870 µM) | > 256 | > 256
43 | COc1cccc(C2CC(c3ccccc3O)=NN2C(N)=S)c1 (stereo not drawn) | > 256 | 256 (≈ 782 µM) | 32 (≈ 97.7 µM) | 64 (≈ 195 µM)
44 | COc1ccc(C2CC(c3ccccc3O)=NN2C(C)=O)cc1O (stereo not drawn) | > 256 | > 256 | > 256 | > 256
45 | CC(=O)N1N=C(c2ccccc2O)CC1c1ccc(Br)cc1 (stereo not drawn) | > 256 | > 256 | > 256 | > 256
46 | Oc1ccccc1C1=NNC(c2ccccc2Cl)C1 (stereo not drawn) | 8 (≈ 29.3 µM) | 64 (≈ 235 µM) | 16 (≈ 58.7 µM) | 32 (≈ 117 µM)
47 | COc1ccc(C2CC(c3ccccc3O)=NN2C(C)=O)cc1 (stereo not drawn) | > 256 | > 256 | > 256 | > 256
